Measurements reported in publication PMC5674823, “Cloning, expression and identification of KTX-Sp4, a selective Kv1.3 peptidic blocker from Scorpiops pococki” (Cell & Bioscience, 2017).
Bridge positions count the residues as written; N and C are the ends. Ends that are not written are not given here.

Key:
[1] = target: T1, mKv1.3 (Mus musculus, UniProt P16390); assay: Whole-cell patch-clamp, mKv1.3 heterologously expressed in HEK293T cells; type: cell-based
T1 construct: expressed in transfected cells; host or cells: HEK293T cells, pIRES2-EGFP vector
T1 sequence (P16390 whole entry): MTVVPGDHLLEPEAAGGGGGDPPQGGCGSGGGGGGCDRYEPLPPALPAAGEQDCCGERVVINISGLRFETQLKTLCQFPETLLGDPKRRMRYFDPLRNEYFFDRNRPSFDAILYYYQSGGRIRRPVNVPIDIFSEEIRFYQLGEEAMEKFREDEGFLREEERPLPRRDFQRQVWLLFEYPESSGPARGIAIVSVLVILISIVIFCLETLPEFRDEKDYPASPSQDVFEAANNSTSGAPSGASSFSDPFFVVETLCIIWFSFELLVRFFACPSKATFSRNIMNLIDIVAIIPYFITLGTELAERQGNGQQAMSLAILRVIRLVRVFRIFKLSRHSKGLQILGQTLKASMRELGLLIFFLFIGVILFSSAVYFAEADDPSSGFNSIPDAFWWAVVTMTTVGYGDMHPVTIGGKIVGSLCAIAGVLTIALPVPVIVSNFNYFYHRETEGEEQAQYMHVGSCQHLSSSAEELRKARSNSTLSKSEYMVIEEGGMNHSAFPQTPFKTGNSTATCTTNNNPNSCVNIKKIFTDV
Description: (§1) Jurkat E6-1 T cells (ATCC TIB152) and HEK293T cells (ATCC ACS4500) were maintained in RPMI medium 1640 (Invitrogen, Carlsbad, CA, USA) and Dulbecco’s modified Eagle’s medium (DMEM) (Life Technologies, GrandIsland, NY, USA), supplemented with 10% fetal bovine serum (Life Technologies), 100 units/ml penicillin, 100 μg/ml streptomycin, respectively. Cells were cultured in a humidified incubator at 37 °C with 5% CO2. The cDNAs encoding mKv1.1, mKv1.1-AEHS/PSGN, hKv1.2 and mKv1.3 [18] were subcloned into the XhoI/BamHI sites of a bicistronic vector, pIRES2-EGFP (Clontech, USA), then transiently transfected into HEK293-T cells using Lipofectamine 2000 (Invitrogen) for electrophysiological experiments.
(§2) Whole-cell patch-clamp recordings were performed using an EPC 9 amplifier (HEKA Elektronik, Lambrecht/Pfalz, Germany) at room temperature (22–24 °C). Pipettes pulled from borosilicate glass (BF 150-86-10; Sutter Instrument Company, Novato, CA, USA) had resistances of 2–4 MΩ when filled with the internal solution. The internal pipette solution for recording Kv currents on DRG neurons contained: 120 mM potassium gluconate, 20 mM KCl, 10 mM EGTA, 10 mM HEPES, 5 mM Na2-ATP, 2 mM MgCl2, 1 mM CaCl2 (pH 7.3 withKOH). […]

[2] = tested on: hKv1.2; assay: Whole-cell patch-clamp, Kv1.2 heterologously expressed in HEK293T cells; type: cell-based, human; details: 1 μM peptide
Description: as §1, §2

[3] = target: T2, endogenous Kv1.3 expressed by human Jurkat T cells (Homo sapiens, UniProt P22001); assay: Whole-cell patch-clamp, endogenous Kv1.3 currents in Jurkat T cells; type: cell-based
T2 construct: endogenous Kv1.3 expressed by human Jurkat T cells; endogenous in cells; host or cells: Jurkat E6-1 T cells (ATCC TIB152)
T2 sequence (P22001 whole entry): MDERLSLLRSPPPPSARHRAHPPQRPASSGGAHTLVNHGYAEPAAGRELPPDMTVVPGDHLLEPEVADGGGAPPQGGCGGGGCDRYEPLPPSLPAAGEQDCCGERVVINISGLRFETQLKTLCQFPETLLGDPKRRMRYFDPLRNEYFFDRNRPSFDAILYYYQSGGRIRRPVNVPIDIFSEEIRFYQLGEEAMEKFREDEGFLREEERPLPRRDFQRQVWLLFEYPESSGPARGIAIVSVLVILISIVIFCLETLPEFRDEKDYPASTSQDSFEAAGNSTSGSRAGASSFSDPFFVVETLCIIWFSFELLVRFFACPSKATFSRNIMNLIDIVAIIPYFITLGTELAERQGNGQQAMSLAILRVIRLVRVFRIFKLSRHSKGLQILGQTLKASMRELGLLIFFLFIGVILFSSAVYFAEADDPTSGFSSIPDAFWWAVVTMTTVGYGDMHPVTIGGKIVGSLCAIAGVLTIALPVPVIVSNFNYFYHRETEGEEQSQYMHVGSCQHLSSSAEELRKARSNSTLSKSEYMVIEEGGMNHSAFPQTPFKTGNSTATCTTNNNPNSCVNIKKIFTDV
Description: as §1, §2

[4] = target: T3, mKv1.1-AEHS/PSGN (Mus musculus, UniProt P16388, A352P/E353S/H355G/S357N); assay: Whole-cell patch-clamp, turret mutant Kv1.1-AEHS/PSGN expressed in HEK293T cells; type: cell-based; details: four Kv1.1 turret residues replaced by those of Kv1.3, mean ± SE of six experiments, SEM, read-out: IC50 on Kv1.1-AEHS/PGSN mutant channel
T3 construct: expressed in transfected cells; host or cells: HEK293T cells, pIRES2-EGFP vector
T3 sequence (P16388 whole entry A352P/E353S/H355G/S357N): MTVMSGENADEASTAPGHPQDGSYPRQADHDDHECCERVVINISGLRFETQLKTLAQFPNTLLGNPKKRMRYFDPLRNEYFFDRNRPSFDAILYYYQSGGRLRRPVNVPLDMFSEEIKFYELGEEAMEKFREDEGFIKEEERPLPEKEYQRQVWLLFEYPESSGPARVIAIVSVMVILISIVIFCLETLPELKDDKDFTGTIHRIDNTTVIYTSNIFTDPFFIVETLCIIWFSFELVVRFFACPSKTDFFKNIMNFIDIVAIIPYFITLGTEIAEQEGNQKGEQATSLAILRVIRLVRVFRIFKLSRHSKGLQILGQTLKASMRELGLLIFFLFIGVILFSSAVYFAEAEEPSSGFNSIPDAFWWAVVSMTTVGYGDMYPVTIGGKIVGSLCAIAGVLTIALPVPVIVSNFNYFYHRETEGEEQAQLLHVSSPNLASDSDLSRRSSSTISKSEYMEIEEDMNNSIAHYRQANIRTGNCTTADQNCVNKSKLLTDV
Description: as §1, §2

[5] = tested on: mKv1.1; assay: Whole-cell patch-clamp, Kv1.1 heterologously expressed in HEK293T cells; type: cell-based, mouse; details: 1 μM peptide
Description: as §1, §2

[6] = tested on: voltage-gated potassium channels on DRG cells; assay: Whole-cell patch-clamp, voltage-gated K+ currents in acutely isolated DRG cells; type: cell-based, mouse; details: 1 μM peptide, +50 mV 400 ms pulse from -60 mV
Description: Mouse spinal columns were removed and placed in ice-cold HBSS; neurons were acutely dissociated and maintained as described. In brief, laminectomies were performed and bilateral DRG were dissected out. After removal of connective tissues, DRG were transferred to a 1 ml Ca^2+/Mg^2+-free HBSS containing 2 μl saturated NaHCO3, 0.35 mg L-cysteine and 20 U papain (Worthington, Lakewood, NJ, USA), and incubated at 37 °C for 10 min. The suspension of DRG was centrifuged, the supernatant was removed, 1 ml Ca^2+/Mg^2+-free HBSS containing 4 mg collagenase type II and 1.25 mg dispase type II (Worthington) was added and incubated at 37 °C for 10 min. After digestion, neurons were pelleted, suspended in neurobasal medium containing 2% B-27 supplement, 1% L-glutamine, 100 U/ml penicillin plus 100 μg/ml streptomycin, and 50 ng/ml nerve growth factor, plated on a 12 mm coverslip coated with poly-L-lysine (10 μg/ml) and cultured under a humidified atmosphere of 5% CO2/95% air at 37 °C for 18–24 h before use.
Whole-cell patch-clamp recordings were performed using an EPC 9 amplifier (HEKA Elektronik, Lambrecht/Pfalz, Germany) at room temperature (22–24 °C). Pipettes pulled from borosilicate glass (BF 150-86-10; Sutter Instrument Company, Novato, CA, USA) had resistances of 2–4 MΩ when filled with the internal solution. […]

Q: Which results are given for “AFPSENPTGGCPLSDNVCSSYCKKNKFGNEGKCHGTICKCSIK (disulfide 11-33, 18-38, 22-40 (inferred)) [KTX-Sp4]”?
A: IC50 ([1]; HEK293T cells, steady-state current at end of depolarizing pulse, n = 10, read-out: IC50 on wild-type mKv1.3-mediated steady-state current): 24.7 ± 10.8 nM; Blocking activity on Kv1.3, times weaker than that of J123 ([1]; comparison with J123): 31 times; Reduction of maximum current of Kv1.2 channel [2]: ~7.23%; Reversibility of suppressive effect on Kv1.3 after washout ([3]; Jurkat T cells, bath application, washout): partially reversible; IC50 ([3]; whole-cell patch-clamp, +50 mV 400 ms pulse from -60 mV, almost zero cytosolic Ca2+ pipette solution, Hill fit, n = 8, read-out: IC50 of inhibition of Kv1.3 current in Jurkat T cells): 235 ± 3.36 nM; IC50 [4]: 12.1 ± 4.08 nM; Reduction of maximum current of Kv1.1 channel [5]: about 20.85%; Inhibitory effect on voltage-gated K+ currents on DRG cells [6]: no significant inhibitory effect
